Measured values as given in US20070243146A1, “Vitamin K1 as Energizer in Cosmetic Formulations” (priority 2004, published 2007).

Columns and labels:
eukaryotic cell lines = settings: cited from earlier work
[1] = tested on: human primary fibroblasts; assay: In vitro analysis of ATP levels in human epidermal fibroblasts (ViaLight Plus ATP assay); assay type: cell-based
Description: The biological endpoint in the example is the energy level of each individual cell. This is determined quantitatively by the level of adenosine triphosphate (ATP), which is the common energy storage molecule in human cells.
Primary epidermal fibroblast were isolated from human foreskin and cultured in DMEM with 10% fetal-bovine serum-(FBS), penicillin, and streptomycin. The cells were maintained in a growth chamber at 37° C. and 5% CO2 and used for these kinds of experiments between passage 8 and 12. Fibroblasts were transferred to 96 well plates and allowed to attach for 5 h in standard medium before a serum starvation with 1% FBS over 4 days was initiated.
Epidermal fibroblasts were treated between 4 h and 48 h with vitamin K1 at concentrations up to 44 μM in DMEM. After variing incubation time, the ATP-assay was performed with the High Sensitivy Cell Proliferation Assay (Via light Plus, Cambrex). The procedure was done according to the manufacturers recommendations. Briefly, the culture plate was removed from the incubator and was allowed to cool down to room temperature for at least 5 minutes, then 50 μl of Cell Lysis Reagent were added to each well and incubated 10 minutes, 100 μl of AMR PLUS were added to each well and incubated for 2 minutes at room temperature. The plate was analysed in a luminometer.

[2] = 45 mg/day, women with osteoporosis; cited from earlier work

## COC1=C(OC)C(=O)C(C/C=C(\C)CC/C=C(\C)CC/C=C(\C)CC/C=C(\C)CC/C=C(\C)CC/C=C(\C)CC/C=C(\C)CC/C=C(\C)CC/C=C(\C)CCC=C(C)C)=C(C)C1=O [coenzyme Q10]
Eukaryotic cell lines
  stimulation of cell growth via transplasma membrane electron transport: able to stimulate these cells

## CC1=C(C/C=C(\C)CCC[C@H](C)CCC[C@H](C)CCCC(C)C)C(=O)c2ccccc2C1=O [vitamin K1, phytomenadione]
[1]; 2 μM vitamin K1, serum-starved fibroblasts, FIG. 1
  incubation time at which maximum stimulation of ATP levels is reached: about 16 h
[1]; dose-response at two time points, no correlation to the time point, FIG. 2
  concentration with the most promising induction of ATP levels: 2 µM
Eukaryotic cell lines
  stimulation of cell growth via transplasma membrane electron transport: no efficacy

## menaquinone [vitamin K2]
[2]
  effect on loss of bone mineral density: slow down but not prevent a progressive loss of bone mineral density
  effect on risk of bone fractures: reduce the risk of bone fractures
